Key:
Assay in all cases: relative viability (nuclei count vs DMSO), 5 days (fraction); higher = more cells survive
[1] = compound: C1/C(=C\C2=CC=CS2)/C(=O)/C(=C/C3=CC=CS3)/C1 + COc1cccc2cc(-c3nc([C@H]4CC[C@H](C(=O)O)CC4)n4ncnc(N)c34)[nH]c12 [OSI-027] (partner 0.5 µM)
In short: (§1)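 Lung cancer cell lines, seeded in 1536-well plates, were treated the following day by pin tool with a single drug or with five library-drug doses (not always all listed) in √10 steps on top of a fixed anchor-drug dose. Cells were fixed and nuclei stained in one step after 5 days, and nuclei were counted. Relative viability is the nuclei count for treated wells divided by that for vehicle wells, reported as medians of duplicate plates.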

[2] = compound: C1/C(=C\C2=CC=CS2)/C(=O)/C(=C/C3=CC=CS3)/C1 + Cc1nc(Nc2ncc(C(=O)Nc3c(C)cccc3Cl)s2)cc(N2CCN(CCO)CC2)n1 [Dasatinib] (partner 0.075 µM)
In short: as §1

TPCA-1 + Trametinib = compound: C1=CC(=CC=C1C2=CC(=C(S2)NC(=O)N)C(=O)N)F [TPCA-1] + CC(=O)Nc1cccc(-n2c(=O)n(C3CC3)c(=O)c3c(Nc4ccc(I)cc4F)n(C)c(=O)c(C)c32)c1 [Trametinib] (partner 0.02 µM)
In short: as §1

TPCA-1 + Phenformin = compound: C1=CC(=CC=C1C2=CC(=C(S2)NC(=O)N)C(=O)N)F [TPCA-1] + N=C(N)NC(=N)NCCc1ccccc1 [Phenformin] (partner 250 µM)
In short: as §1

| Cell Line | relative viability ([1]; first compound 0.2 µM) | relative viability ([1]; first compound 0.6325 µM) | relative viability ([1]; first compound 2 µM) | relative viability ([1]; first compound 20 µM) | relative viability ([2]; first compound 0.2 µM) | relative viability ([2]; first compound 0.6325 µM) | relative viability ([2]; first compound 2 µM) | relative viability ([2]; first compound 20 µM) | relative viability (TPCA-1 + Trametinib; first compound 0.04 µM) | relative viability (TPCA-1 + Trametinib; first compound 0.1265 µM) | relative viability (TPCA-1 + Trametinib; first compound 0.4 µM) | relative viability (TPCA-1 + Trametinib; first compound 1.265 µM) | relative viability (TPCA-1 + Trametinib; first compound 4 µM) | relative viability (TPCA-1 + Phenformin; first compound 0.04 µM) | relative viability (TPCA-1 + Phenformin; first compound 0.1265 µM) | relative viability (TPCA-1 + Phenformin; first compound 0.4 µM) | relative viability (TPCA-1 + Phenformin; first compound 1.265 µM) | relative viability (TPCA-1 + Phenformin; first compound 4 µM) | relative viability ([1]; first compound 6.325 µM) | relative viability ([2]; first compound 6.325 µM) |
| --- | --- | --- | --- | --- | --- | --- | --- | --- | --- | --- | --- | --- | --- | --- | --- | --- | --- | --- | --- | --- |
| NCI-H358 | 0.807 | 0.801 | 0.914 | 0.651 | 0.155 | 0.178 | 0.18 | 0.164 | 0.167 | 0.165 | 0.157 | 0.158 | 0.0935 | 0.359 | 0.287 | 0.379 | 0.333 | 0.206 |  |  |
| PC-3 [JPC-3] | 0.774 | 0.715 | 0.719 | 0.778 | 1.03 | 0.981 | 1.04 | 0.948 | 0.755 | 0.692 | 0.73 | 0.757 | 0.642 | 0.461 | 0.461 | 0.484 | 0.486 | 0.468 | 0.552 | 0.856 |
| NCI-H1792 | 0.84 | 0.619 | 0.754 | 0.67 | 0.774 | 0.613 | 0.968 | 0.752 | 0.489 | 0.333 | 0.394 | 0.374 | 0.243 | 0.326 | 0.246 | 0.322 | 0.217 | 0.158 | 0.694 | 0.758 |
| NCI-H596 | 0.76 | 0.781 | 1.01 | 0.794 | 0.577 | 0.677 | 0.598 | 0.586 | 0.801 | 0.78 | 0.74 | 0.884 | 0.658 | 0.857 | 0.678 | 0.764 | 0.746 | 0.658 | 0.699 | 0.628 |
| RERF-LC-KJ | 0.528 | 0.659 | 0.71 | 0.545 | 0.858 | 0.798 | 0.776 | 0.656 | 0.852 | 0.786 | 0.89 | 0.756 | 0.732 | 0.425 | 0.393 | 0.424 | 0.408 | 0.37 | 0.539 | 0.682 |
| NCI-H322M | 0.559 | 0.658 | 0.652 | 0.516 | 0.256 | 0.244 | 0.249 | 0.247 | 0.499 | 0.455 | 0.51 | 0.449 | 0.494 | 0.922 | 0.7 | 0.797 | 0.795 | 0.375 | 0.564 | 0.237 |
| COR-L 105 | 0.679 | 0.849 | 0.781 | 0.632 | 0.453 | 0.341 | 0.339 | 0.302 | 0.542 | 0.321 | 0.422 | 0.505 | 0.407 | 0.471 | 0.406 | 0.448 | 0.368 | 0.323 |  |  |
| NCI-H1993 | 0.627 | 0.54 | 0.585 | 0.523 | 0.545 | 0.48 | 0.616 | 0.649 | 0.545 | 0.563 | 0.563 | 0.423 | 0.425 | 0.425 | 0.536 | 0.55 | 0.421 | 0.485 | 0.447 | 0.457 |
| NCI-H1437 | 0.866 | 0.782 | 0.889 | 0.834 | 0.408 | 0.446 | 0.561 | 0.378 | 0.581 | 0.493 | 0.521 | 0.511 | 0.453 | 0.336 | 0.297 | 0.277 | 0.297 | 0.299 | 0.88 | 0.412 |
| NCI-H838 | 0.412 | 0.38 | 0.409 | 0.365 | 0.278 | 0.268 | 0.274 | 0.284 | 0.599 | 0.457 | 0.533 | 0.336 | 0.406 | 0.612 | 0.516 | 0.672 | 0.367 | 0.288 | 0.491 | 0.276 |
| NCI-H1666 | 0.874 | 0.863 | 0.83 | 0.964 | 0.833 | 0.847 | 0.811 | 0.875 | 0.838 | 0.7 | 0.879 | 0.804 | 0.787 | 0.547 | 0.569 | 0.533 | 0.529 | 0.581 | 0.732 | 0.786 |
| NCI-H1944 | 0.464 | 0.409 | 0.464 | 0.425 | 0.225 | 0.202 | 0.217 | 0.19 | 0.423 | 0.373 | 0.426 | 0.355 | 0.294 | 0.238 | 0.202 | 0.217 | 0.176 | 0.189 | 0.408 | 0.225 |
| NCI-H2023 | 0.394 | 0.469 | 0.425 | 0.364 | 0.597 | 0.581 | 0.673 | 0.502 | 0.588 | 0.352 | 0.556 | 0.487 | 0.426 | 0.488 | 0.423 | 0.476 | 0.359 | 0.269 | 0.304 | 0.513 |
| ABC-1 | 0.645 | 0.583 | 0.647 | 0.498 | 0.648 | 0.576 | 0.626 | 0.701 |  |  |  |  |  | 0.292 | 0.22 | 0.197 | 0.211 | 0.203 | 0.426 | 0.7 |
| NCI-H1563 | 0.774 | 0.787 | 0.717 | 0.773 | 0.452 | 0.462 | 0.504 | 0.465 |  |  |  |  |  | 0.712 | 0.653 | 0.712 | 0.603 | 0.667 | 0.729 | 0.453 |
| NCI-H1648 | 0.282 | 0.269 | 0.307 | 0.258 |  |  |  |  | 0.505 | 0.473 | 0.378 | 0.169 | 0.582 |  |  |  |  |  |  |  |
| A549 |  |  |  |  |  |  |  |  |  |  |  |  |  | 0.206 | 0.162 | 0.151 | 0.141 | 0.0882 |  |  |
| NCI-H1623 | 0.455 | 0.465 | 0.445 | 0.405 | 0.53 | 0.561 | 0.52 | 0.53 |  |  |  |  |  | 0.592 | 0.522 | 0.62 | 0.574 | 0.4 | 0.434 | 0.52 |
| HCC-44 | 0.482 | 0.528 | 0.649 | 0.479 |  |  |  |  | 1.09 | 0.983 | 1.09 | 0.914 | 1.02 | 0.195 | 0.178 | 0.209 |  | 0.153 | 0.475 |  |
